Test results reported in patent US20220144823A1, “PYRAZOLOPYRIDINE DERIVATIVES AS INHIBITORS OF PASK” (Galapagos NV, priority 2019, published 2022).

Target: T1, autophosphorylation of PASK at position Thr307 in Hek293 cells overexpressing PASK (Homo sapiens, UniProt Q96RG2)
T1 construct: expressed in transfected cells; host or cells: Hek293
Assay: PASK autophosphorylation ELISA assay
Format: cell-based
Conditions: 24 h, ELISA readout
Outline: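 Hek293 cells transiently transfected with full-length wild-type PASK-FLAG, treated 24 h in serum-free DMEM with an 8-point 1/3 dilution series from 30 μM final (0.3% DMSO). Lysates captured on anti-FLAG ELISA plates, Thr307 phosphorylation detected with phospho-Akt substrate (RXXS*/T*) antibody and HRP chemiluminescence; IC50 from percentage inhibition curves.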

T1 sequence (Q96RG2 with tags, fused parts or gaps): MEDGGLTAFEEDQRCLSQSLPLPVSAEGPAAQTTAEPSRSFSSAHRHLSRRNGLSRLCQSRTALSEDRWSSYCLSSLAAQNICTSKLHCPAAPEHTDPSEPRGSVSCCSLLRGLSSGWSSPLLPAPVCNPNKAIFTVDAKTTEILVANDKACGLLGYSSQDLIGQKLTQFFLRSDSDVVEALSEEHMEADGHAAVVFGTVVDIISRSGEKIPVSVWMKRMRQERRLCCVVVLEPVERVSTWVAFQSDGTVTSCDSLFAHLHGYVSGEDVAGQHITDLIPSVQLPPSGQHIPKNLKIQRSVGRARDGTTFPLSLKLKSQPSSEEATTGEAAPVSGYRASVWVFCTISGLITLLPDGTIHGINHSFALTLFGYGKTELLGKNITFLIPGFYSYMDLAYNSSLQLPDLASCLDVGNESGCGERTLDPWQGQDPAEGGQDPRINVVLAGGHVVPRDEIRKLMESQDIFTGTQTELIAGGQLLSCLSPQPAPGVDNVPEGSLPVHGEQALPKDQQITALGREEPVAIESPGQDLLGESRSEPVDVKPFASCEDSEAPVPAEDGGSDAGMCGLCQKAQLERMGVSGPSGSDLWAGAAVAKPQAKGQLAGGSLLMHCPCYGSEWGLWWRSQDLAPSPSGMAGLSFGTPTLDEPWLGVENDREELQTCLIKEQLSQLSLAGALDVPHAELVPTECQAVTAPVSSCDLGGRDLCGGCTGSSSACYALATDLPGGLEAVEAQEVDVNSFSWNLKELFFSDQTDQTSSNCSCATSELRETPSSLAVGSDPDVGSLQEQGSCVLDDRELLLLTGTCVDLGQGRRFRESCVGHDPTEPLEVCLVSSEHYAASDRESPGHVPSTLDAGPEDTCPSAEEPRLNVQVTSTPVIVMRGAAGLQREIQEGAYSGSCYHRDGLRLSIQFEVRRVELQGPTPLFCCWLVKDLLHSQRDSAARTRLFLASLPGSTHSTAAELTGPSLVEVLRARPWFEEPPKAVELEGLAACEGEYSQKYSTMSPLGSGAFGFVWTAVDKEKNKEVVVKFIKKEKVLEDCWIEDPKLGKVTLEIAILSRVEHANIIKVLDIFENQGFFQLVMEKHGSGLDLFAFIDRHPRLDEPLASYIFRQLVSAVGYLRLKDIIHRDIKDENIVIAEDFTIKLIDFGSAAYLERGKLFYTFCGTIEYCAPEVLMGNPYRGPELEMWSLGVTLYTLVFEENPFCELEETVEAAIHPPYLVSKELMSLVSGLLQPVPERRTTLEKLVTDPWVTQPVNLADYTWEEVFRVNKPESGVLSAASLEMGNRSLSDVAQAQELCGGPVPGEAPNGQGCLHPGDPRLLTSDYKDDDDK

IC50: 500 to 1000 nM
SMILES: Cc1nn(C(C)C)c(C)c1-c1cnn2ccc(-c3cc(C(=O)O)co3)cc12 [Cpd 18, 5-[3-(1-isopropyl-3,5-dimethyl-pyrazol-4-yl)pyrazolo[1,5-a]pyridin-5-yl]furan-3-carboxylic acid]
